Tests used:
[1] = target: hMC2R (Homo sapiens, UniProt Q01718); assay: agonist activity on hMC2R; type: biochemical; details: versus selective agonist affinity for hMC1R and hMC4R
[2] = in vivo

hMC2R, sequence (Q01718 whole entry): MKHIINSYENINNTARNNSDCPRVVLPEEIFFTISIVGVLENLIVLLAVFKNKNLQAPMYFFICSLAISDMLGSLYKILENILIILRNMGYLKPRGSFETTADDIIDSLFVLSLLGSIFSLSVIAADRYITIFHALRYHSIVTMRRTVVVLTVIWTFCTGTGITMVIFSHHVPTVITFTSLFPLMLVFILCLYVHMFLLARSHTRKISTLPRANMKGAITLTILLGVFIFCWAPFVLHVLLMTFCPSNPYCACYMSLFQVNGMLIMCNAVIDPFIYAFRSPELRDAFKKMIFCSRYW
hMC2R, sequence (Q8TCY5 whole entry partner): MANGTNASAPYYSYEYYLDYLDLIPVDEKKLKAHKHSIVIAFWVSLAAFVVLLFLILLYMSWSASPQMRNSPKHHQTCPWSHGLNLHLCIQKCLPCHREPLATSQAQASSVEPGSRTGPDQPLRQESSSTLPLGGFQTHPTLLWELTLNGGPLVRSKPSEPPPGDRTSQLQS

For `CCCC[C@H](NC(C)=O)C(=O)N[C@H]1CC(=O)NCCCC[C@@H](C(=O)O)NC(=O)[C@H](Cc2c[nH]c3ccccc23)NC(=O)[C@H](CCCN=C(N)N)NC(=O)[C@@H](Cc2ccccc2)NC(=O)[C@H](Cc2cnc[nH]2)NC1=O` [bremelanotide, Ac-Nle-cyclo-(Asp-His-D-Phe-Arg-Trp-Lys-OH)], the “activity on hMC2R” value [1] was “none” and the “central activity in human, indicating passage of the human blood-brain-barrier” value [2] was “show central activity in human”.
